The text below walks through data of US11572344B2, “Cyanoaryl-aniline compounds for treatment of dermal disorders” (NFlection Therapeutics, Inc., priority 2018, dated 2023).

Usually IC50 stands for the concentration that inhibits the measured activity by half. As usually defined, the GI50 is the concentration that inhibits growth by half. In general, half-life refers to the time in which the quantity being followed falls by half.

Where only a bound is given, the exact number is not on record here.

One series concerns the target MEK1 (Homo sapiens (Human), UniProt Q02750). The experiment in a line: MEK Inhibition Assay-2 (Z′-LYTE biochemical assay). The note with it: Z′-LYTE assay of Example 39; read-out: IC50 against MEK1. The protocol: MEK1 inhibitory activity of compounds were tested using the following procedure (protocol available at thermofisher.com/content/dam/LifeTech/migration/files/drug-discovery/pdfs.par.60256.file.dat/20130430%20ssbk %20customer %20protocol %20and %20assa y %20conditions.pdf). The Z′-LYTE biochemical assay (ThermoFisher) employs a fluorescence-based, coupled-enzyme format and is based on the differential sensitivity of phosphorylated and non-phosphorylated peptides to proteolytic cleavage.
Test compounds in 100% DMSO were screened in 1% DMSO (final) in the well. For 10 point titrations, 3-fold serial dilutions are conducted from the starting concentration of 30 μM.
After the 1 hour incubation, 5 μL of a 1:1024 dilution of Development Reagent A (available from Invitrogen, catalog no. PV3295) was added.
ATP solutions were diluted to a 4× working concentration in Kinase Buffer (50 mM HEPES pH 7.5, 0.01% BRIJ-35, 10 mM MgCl2, 1 mM EGTA). ATP Km apparent was previously determined using a Z′-LYTE assay. The Development Reagent was diluted in Development Buffer (available from Invitrogen, catalog no. P3127).
Assay Protocol: 2.5 μL of 4× test compound or 100 nL of 100× Test Compound plus 2.4 μL Kinase Buffer, 5 μL of the 2× Peptide/Kinase Mixture, 2.5 μL of 4×ATP Solution were added to the plates and placed on a shake plate for 30-seconds. The kinase reaction was allowed to proceed for 60-minute at room temperature, before 5 μL of Development Reagent Solution was added, and the mixture agitated for 30-seconds on a shake plate. The mixture was incubated for 60-minute at room temperature. Fluorescence was measured using a plate reader and the data were analyzed.
This control yielded 100% cleaved peptide in the Development Reaction. The 100% Phosphorylation Control, which consisted of a synthetically phosphorylated peptide of the same sequence as the peptide substrate, was designed to allow for the calculation of percent phosphorylation. This control yielded a very low percentage of cleaved peptide in the Development Reaction. The 0% Phosphorylation and 100% Phosphorylation Controls allow for the calculation of the percent phosphorylation achieved in a specific reaction well.
The minimum emission ratio in a screen was established by the 0% Inhibition Control, which contained active kinase. This control was designed to produce a 10-50% phosphorylated peptide in the Kinase Reaction. Cascade assays may produce up to 70% phosphorylated peptide.
A known inhibitor control standard curve, 10 point titration, was run for each individual kinase on the same plate as the kinase to ensure the kinase was inhibited within an expected IC50 range previously determined.
The following controls are prepared for each concentration of Test Compound assayed. […] The expected value for a non-interfering compound should be 100%. Any value outside of 90% to 110% was flagged. […] The expected value for a non-fluorescence compound should be 0%. Any value>20% was flagged.
The data in Table A was calculated. XLfit from IDBS was used. The dose response curve was curve fit to model number 205 (sigmoidal dose-response model).
Table 3 lists the MEK1 inhibition assay results of selected compounds according to the above procedure.

The subject of a further series is A375 cells. Put plainly: A375 (BRAF) GI50 cell-based assay (Cell Titer-Glo). The conditions noted are these: Homo sapiens, A-375, 72 hours, read-out: Assay 2: A375 (BRAF) GI50. The protocol: (§1) Alternatively, the following procedure can be used to measure cell-based activity. Test compounds were dissolved in DMSO in 10 mM stock. Cell Titer-Glo® 2.0 Luminescent cell viability assay reagent was purchased from Promega (Madison, Wis.). A375 and HCT116 cell lines were purchased from American Type Culture Collection (Manassas, Va.). For A375 cells, cell culture media was DMEM+10% FBS. For HCT116 cells, cell culture media was McCoy's 5A+10% FBS. All media were supplemented with 100 μg/mL of penicillin, and 100 μg/mL of streptomycin. Cultures were maintained at 37° C. in a humidified atmosphere of 5% CO2 and 95% air.
(§2) Test compounds were diluted in DMSO solution with 10-dose and 3-fold dilutions in a source plate starting at 10 mM. 25 nL of each test compound was delivered from the source plate to each well of the 384-well cell culture plates (T=Final) by Echo 550. 25 μL of culture medium containing 2000 of A375 or HCT116 cells was added to each of the wells in duplicates of the cell culture plates (T=0 and T=Final). 25 μL of Cell Titer Glo 2.0 reagent was added to each well of cell culture plate (T=0). The contents were mixed on an orbital shaker for 2 min and incubated at room temperature for 15 min to stabilize luminescent signal. Luminescence was recorded by Envision 2104 Multilabel Reader (PerkinElmer, Santa Clara, Calif.). The number of viable cells in culture was determined based on quantitation of the ATP present in each culture well. The cells in cell culture plate (T=Final) were incubated with the compounds at 37° C., 5% CO2 for 72 hours. 25 μL of Cell Titer Glo 2.0 reagent was added to each well. The contents were mixed on an orbital shaker for 2 min and incubated at room temperature for 15 min to stabilize luminescent signal. Luminescence was recorded by Envision 2104 Multilabel Reader (PerkinElmer, Santa Clara, Calif.). The number of viable cells in culture was determined based on quantitation of the ATP present in each culture well. The GI50 curves were plotted using the GraphPad Prism 4 program based on a sigmoidal dose-response equation Y=Bottom+(Top-Bottom)/(1+10^((Log EC50−X)*HillSlope)). All parameters in the equation were calculated by GraphPad Prism 4 program. […] Accordingly, GI50 is the value of 10^X, where X was calculated by the Curve Fitting Equation when Y=50 using Excel.
Assay 2 is the A375 (BRAF) GI50 (nM) cell-based assay as described in Example 41.
(In general: Cellular ATP, detected with luciferase, serves as a proxy for viable cell number.)

A further series deals with HCT116 cells. Put plainly: HCT116 (Kras) GI50 cell-based assay (Cell Titer-Glo). The conditions noted are these: Homo sapiens, HCT-116, 72 hours, read-out: Assay 3: HCT116 (Kras) GI50. Here is the method:
as §1, §2
Assay 3 is the HCT116 (Kras) GI50 (nM) assay as described in Example 41.

The nature of series [1]: Liver S9 half-life stability assay. Type of series: in vitro ADME. The note with it: human, liver S9 fraction, pH 7.4; 1 μM test compound, 2 mg/mL liver protein, 1 mM NADPH; read-out: Assay 4: liver S9 half-life. The protocol:
Compounds can be assessed for metabolic stability in human skin by assessing their rate of disappearance from human S9 skin fraction. Similarly, compounds can be assessed for metabolic stability in human liver by assessing their rate of disappearance from human S9 liver fraction. The protocol below is used to assess the difference between skin and hepatic metabolism.
The assay was carried out in 96-well microtiter plates at 37° C. Reaction mixtures (25 μL) contained a final concentration of 1 μM test compound, 2 mg/mL liver or skin protein, and 1 mM NADPH in buffer (100 mM potassium phosphate, pH 7.4 buffer with 1 mM EDTA, 3 mM MgCl2). At each of the time points (0, 15, 30, and 60 minutes), 150 μL of quench solution (100% acetonitrile with 0.1% formic acid) with internal standard was transferred to each well. Besides the zero minute controls, mixtures containing the same components except the NADPH were also prepared as the negative control. Verapamil or testosterone was included as a positive control to verify assay performance. Plates were sealed and centrifuged at 4° C. for 15 minutes at 4000 rpm. The supernatant was transferred to fresh plates for LC/MS/MS analysis.
All samples were analyzed on LC/MS/MS using an AB Sciex API 4000 instrument, coupled to a Shimadzu LC-20AD LC Pump system. Analytical samples were separated using a Waters Atlantis T3 dC18 reverse phase HPLC column (20 mm×2.1 mm) at a flow rate of 0.5 mL/min. The mobile phase consisted of 0.1% formic acid in water (solvent A) and 0.1% formic acid in 100% acetonitrile (solvent B).
The extent of metabolism was calculated as the disappearance of the test compound, compared to the 0-min control reaction incubations. Initial rates were calculated for the compound concentration and used to determine t1/2 values and subsequently, the intrinsic clearance, CLint=(0.693) (1/t1/2 (min)) (mL incubation/mg of S9 protein).
Assay 4 is the liver S9 half-life stability assay as described in Example 42. A4 indicates a half life of greater than 50 min and less than or equal to 200 min and B4 indicates a half life of less than or equal to 50 minutes.

For series [2] the following is noted: systemic MEK inhibitor; cited from earlier work.

Chain of MEK1 (Q02750 whole entry): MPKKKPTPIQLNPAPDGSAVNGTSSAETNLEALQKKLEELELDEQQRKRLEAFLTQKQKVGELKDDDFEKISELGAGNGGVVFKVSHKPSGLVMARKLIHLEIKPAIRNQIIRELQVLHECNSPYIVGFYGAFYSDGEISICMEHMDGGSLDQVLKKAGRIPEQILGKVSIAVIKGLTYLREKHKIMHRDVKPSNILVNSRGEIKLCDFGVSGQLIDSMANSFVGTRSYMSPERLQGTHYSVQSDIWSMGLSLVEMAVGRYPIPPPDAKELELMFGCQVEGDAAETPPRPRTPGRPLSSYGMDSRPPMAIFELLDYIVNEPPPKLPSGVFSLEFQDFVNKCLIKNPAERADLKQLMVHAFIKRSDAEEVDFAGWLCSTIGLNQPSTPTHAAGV

Turning to `N#Cc1ccc(C(=O)NC2CC2)c(Nc2ccc(I)cc2F)c1` [Compound 1.005], the IC50 on MEK1 was greater than 1.5 µM.
On to `CONC(=O)c1ccc(C#N)cc1Nc1ccc(I)cc1F` [Compound 1.007], for which the GI50 lay in the range of 0.5 to 1.5 µM in the series on A375 cells and 0.75 to 2 µM in the series with HCT116 cells. In series [1], the half-life at 1 μM is no more than 50 min.
As for `CCONC(=O)c1ccc(C#N)cc1Nc1ccc(I)cc1F` [Compound 1.008], the 50% growth inhibitory concentration (GI50) in the series on A375 cells lay in the range of 0.5 to 1.5 µM; with HCT116 cells it was 0.75 to 2 µM. Also, the half-life at 1 μM in series [1] was no more than 50 min.
Consider `CCCONC(=O)c1ccc(C#N)cc1Nc1ccc(I)cc1F` [Compound 1.009], for which the half-life at 1 μM in series [1] was no more than 50 min.
On to `N#Cc1ccc(C(=O)NO)c(Nc2ccc(I)cc2F)c1` [Compound 1.017, 4-Cyano-2-((2-fluoro-4-iodophenyl)amino)-N-hydroxybenzamide], for which, at MEK1, the IC50 was no more than 0.15 µM.
The same measure, in the same setting: for `COC(=O)CCONC(=O)c1ccc(C#N)cc1Nc1ccc(I)cc1F` [Compound 1.022, Methyl 3-((4-cyano-2-((2-fluoro-4-iodophenyl)amino)benzamido)oxy) propanoate] the value was greater than 1.5 µM.
As for `O=C(NOC[C@H](O)CO)c1ccc(F)c(F)c1Nc1ccc(I)cc1F` [PD0325901], in series [2], the “side effects in clinical trials” value is “neurological side effects associated with ataxia, confusion, and syncope”.
